Data from patent US20260001914A1, “MACROCYCLIC PEPTIDES TARGETING KRAS” (Merck Sharp & Dohme LLC, priority 2022, published 2026).
pEC50: −log10 of the molar value. *1 amine or outer side, *2 acyl side, *3 side chain or, on linkers, in order; H or OH if unused. Where a SMILES comes first, the peptide text is derived from it. Bridges are numbered along the chain shown (N, C = ends). [ ]: non-standard residue; d: D form. The star is where a group is joined. NMeNva(5-imidazol-1-yl) = CN[C@@H](CCCn1ccnc1)C(=O)O; Phe(4-guanidino) = N=C(N)Nc1ccc(C[C@H](N)C(=O)O)cc1; X44 = C[C@@H](c1ccccc1)[C@@H](C(=O)[*:2])N(C)[*:1]; Ala(pyrimidin-5-yl) = N[C@@H](Cc1cncnc1)C(=O)O; X6 = O=C([C@H](Cc1cnn(C2COC2)c1)N[*:1])[*:2]; NMePhe(4-Me) = CN[C@@H](Cc1ccc(C)cc1)C(=O)O; X25 = O=C([C@H](Cc1ccc(F)nc1)N[*:1])[*:2]; NMeNva(5,5-F2) = CN[C@@H](CCC(F)F)C(=O)O; Lys(N3) = [N-]=[N+]=NCCCC[C@H](N)C(=O)O; X11 = CC(C)(F)CC[C@H](N[*:1])C(=O)[*:2]; X30 = O=C([C@H](Cc1ncccc1F)N[*:1])[*:2]; Nle(5,5-F2) = CC(F)(F)CC[C@H](N)C(=O)O; X2 = O=C([C@H](Cc1ccccc1F)O[*:1])[*:2]; X32 = CS(=O)(=O)CCCN(CC(=O)[*:2])[*:1]; X21 = O=C([C@@H]1C[C@H]1CN[*:1])[*:2]; Ala(cPent) = N[C@@H](CC1CCCC1)C(=O)O; Phe(2-F) = N[C@@H](Cc1ccccc1F)C(=O)O; NMe3Pal = CN[C@@H](Cc1cccnc1)C(=O)O; X1 = O=C(C12CC(CN[*:1])(C1)C2)[*:2]; Aha = [N-]=[N+]=NCC[C@H](N)C(=O)O; NMeR = CN[C@@H](CCCNC(=N)N)C(=O)O; Ala(cPr) = N[C@@H](CC1CC1)C(=O)O; NMeF = CN[C@@H](Cc1ccccc1)C(=O)O; PhLac = O=C(O)[C@@H](O)Cc1ccccc1; 3Pal = N[C@@H](Cc1cccnc1)C(=O)O; Ahp(2) = CCCCC[C@H](N)C(=O)O; Cba = N[C@@H](CC1CCC1)C(=O)O; hLeu = CC(C)CC[C@H](N)C(=O)O; NMeAbu = CC[C@H](NC)C(=O)O; αMeC = C[C@](N)(CS)C(=O)O; NMeA = CN[C@@H](C)C(=O)O; Nle = CCCC[C@H](N)C(=O)O; Pyrrolidide = C1CCN(*)C1

target: phosphorylation levels of ERK1/2 in AsPC-1 (homozygous KRAS-G12D) cells (Homo sapiens, UniProt P01116, G12D); assay: Cellular phospho-ERK assay in AsPC-1 cells (Alpha Screen), assay medium without fetal bovine serum; assay type: cell-based; details: phospho-ERK AlphaScreen, 18 h;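 note: signal taken as phospho-ERK over total ERK per well, both detected in one multiplex bead assay, EC50 from four-parameter logistic fit of dose-response curves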
Sequence (P01116 1-186 G12D): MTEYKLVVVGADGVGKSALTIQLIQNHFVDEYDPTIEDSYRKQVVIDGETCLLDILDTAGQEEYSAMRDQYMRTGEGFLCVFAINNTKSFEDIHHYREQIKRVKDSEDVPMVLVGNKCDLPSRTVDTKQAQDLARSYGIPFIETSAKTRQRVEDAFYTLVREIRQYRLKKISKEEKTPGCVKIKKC
Method: Assay plate was incubated at 37° C. 5% CO2 for the indicated length of time. […] Phosphorylated ERK and total ERK levels were detected by Alpha SureFire Ultra Multiplex pERK kit (PerkinElmer MPSU-PTERK) using 5 μL, acceptor bead mix and 5 μL donor bead mix, both prepared following the manufacturer's protocol. Plates were sealed using aluminum sealing tape (Costar 07-200-683) during incubation at ambient temperature with constant shaking at 300 rpm for 1 h (both acceptor and donor). Assay plates were read on a Envision Xcite Multilabel Reader (PerkinElmer 1040900) at ambient temperature, with emission at 535 nm (Total ERK) and emission at 615 nm (Phospho ERK). Ratio of pERK vs total ERK in each well was used as the final readout. Dose response curves and EC50 were analyzed using a 4-parameter logistic equation in GraphPad Prism software.

SMILES | pEC50
CCCC[C@@H]1NC(=O)[C@H](Cc2cccnc2)NC(=O)[C@H](CC)N(C)C(=O)[C@H](Cc2ccccc2)OC(=O)C23CC(CNC(=O)[C@H](Cc4cccnc4)N(C)C(=O)[C@H](CCCC)NC(=O)[C@H](Cc4ccccc4F)NC1=O)(C2)C3 [compound 404, cyclo(FLac-NMeAbu-3Pal-Nle-Phe2F-Nle-NMe3Pal-amBCP)] (cyclo([3Pal][Nle][Phe(2-F)][Nle][NMe3Pal][X1][PhLac][NMeAbu])) | 4.51
C[C@H]1C(=O)N[C@@H](Cc2cnn(C3COC3)c2)C(=O)N[C@@H](CC2CC2)C(=O)N[C@@H](Cc2ccccc2F)C(=O)N[C@@H](CCC(C)(F)F)C(=O)N(C)[C@@H](Cc2ccccc2)C(=O)NCC23CC(C2)(C3)C(=O)O[C@@H](Cc2ccccc2)C(=O)N1C [compound 291, cyclo(FLac-NMcA-AlaPyzlOx-cPrA-Phe2F-Nle3F2-NMeF-amBCP)] (cyclo([Ala(cPr)][Phe(2-F)][Nle(5,5-F2)][NMeF][X1][PhLac][NMeA][X6])) | 5.49
CON=C1C[C@@H](Cc2ccccc2)C(=O)N(C)[C@@H](C)C(=O)N[C@@H](Cc2cncnc2)C(=O)N[C@@H](CC2CC2)C(=O)N[C@@H](Cc2ccccc2F)C(=O)N[C@@H](CCC(C)(F)F)C(=O)N(C)[C@@H](Cc2ccccc2)C(=O)NCC23CC1(C2)C3 (single isomer, unassigned) [compound 177, cyclo(CPhe-NMeA-PyrimAla-cPrA-Phe2F-Nle3F2-NMeF-MeOximamBCP)] | 5.47
CCCCC[C@@H]1NC(=O)[C@H](Cc2ccc(OC)cc2)NC(=O)[C@H](CC2CCC2)NC(=O)[C@H](Cc2cncnc2)NC(=O)[C@H](CCCNC(=N)N)NC(=O)[C@H](Cc2ccccc2)NC(=O)CSC[C@@](C)(C(N)=O)NC(=O)[C@H](Cc2ccccc2)N(C)C1=O [compound 367, cyclo(F-R-PyrimAla-cBuA-TyrOMe-Ahp-NMeF-aMeCl-ClAc)] ({CH2CO}-FR[Ala(pyrimidin-5-yl)][Cba]Y(Me)[Ahp(2)][NMeF][αMeC]-NH2; thioether N-8) | < 4.29
C[C@H]1C(=O)N[C@@H](Cc2cncnc2)C(=O)N[C@@H](CC2CC2)C(=O)N[C@@H](Cc2ccccc2F)C(=O)N[C@@H](CCC(C)(F)F)C(=O)N(C)[C@@H](Cc2ccccc2)C(=O)NCC23CC(C2)(C3)C(=O)O[C@@H](Cc2ccccc2)C(=O)N1C [compound 276, cyclo(FLac-NMeA-PyrimAla-cPrA-Phe2F-Nle3F2-NMeF-amBCP)] (cyclo([Ala(cPr)][Phe(2-F)][Nle(5,5-F2)][NMeF][X1][PhLac][NMeA][Ala(pyrimidin-5-yl)])) | 6.18
CCCC[C@@H]1NC(=O)[C@H](Cc2ccc(F)nc2)NC(=O)[C@H](C)N(C)C(=O)[C@H](Cc2ccccc2)OC(=O)C23CC(CNC(=O)[C@H](Cc4ccccc4)N(C)C(=O)[C@H](CCCC)NC(=O)[C@H](Cc4ncccc4F)NC1=O)(C2)C3 [compound 228, cyclo(FLac-NMeA-4F3Pal-Nle-2Pal6F-Nle-NMeF-amBCP)] (cyclo([NMeA][X25][Nle][X30][Nle][NMeF][X1][PhLac])) | < 4.29
CCCC[C@@H]1NC(=O)[C@H](Cc2cccnc2)NC(=O)[C@H](C)N(C)C(=O)[C@H](Cc2ccccc2)NC(=O)CSC[C@@](C)(C(N)=O)NC(=O)[C@H](Cc2ccccc2)N(C)C(=O)[C@H](CCCC)NC(=O)[C@H](Cc2ccccc2F)NC1=O [compound 159, cyclo(F-NMeA-3Pal-Nle-Phe2F-Nle-NMeF-aMeCl-ClAc)] ({CH2CO}-F[NMeA][3Pal][Nle][Phe(2-F)][Nle][NMeF][αMeC]-NH2; thioether N-8) | 4.68
CCCC[C@@H]1NC(=O)[C@H](Cc2cccnc2)NC(=O)[C@H](C)N(C)C(=O)[C@H](Cc2ccccc2)OC(=O)C23CC(CNC(=O)[C@H](Cc4cccnc4)N(C)C(=O)[C@H](CCC(C)C)NC(=O)[C@H](Cc4ccccc4F)NC1=O)(C2)C3 [compound 124, cyclo(FLac-NMeA-3Pal-Nle-Phe2F-hL-NMe3Pal-amBCP)] (cyclo([3Pal][Nle][Phe(2-F)][hLeu][NMe3Pal][X1][PhLac][NMeA])) | 5.33
CCCC[C@@H]1NC(=O)[C@H](Cc2cncnc2)NC(=O)[C@H](C)N(C)C(=O)[C@H](Cc2ccccc2)OC(=O)C23CC(CNC(=O)[C@H](Cc4ccc(C)cc4)N(C)C(=O)[C@H](CCCC)NC(=O)[C@H](Cc4ccccc4F)NC1=O)(C2)C3 [compound 171, cyclo(FLac-NMeA-PyrimAla-Nle-Phe2F-Nle-NMePhe4Me-amBCP)] (cyclo([NMeA][Ala(pyrimidin-5-yl)][Nle][Phe(2-F)][Nle][NMePhe(4-Me)][X1][PhLac])) | 6.65
C[C@@H](c1ccccc1)[C@H]1C(=O)NCC23CC(C2)(C3)C(=O)O[C@@H](Cc2ccccc2)C(=O)N(C)[C@@H](C)C(=O)N[C@@H](Cc2cncnc2)C(=O)N[C@@H](CC2CC2)C(=O)N[C@@H](Cc2ccccc2F)C(=O)N[C@@H](CCC(C)(C)F)C(=O)N1C [compound 340, cyclo(FLac-NMeA-PyrimAla-cPrA-Phe2F-hL3F-NMeSbMeF-amBCP)] (cyclo([Ala(cPr)][Phe(2-F)][X11][X44][X1][PhLac][NMeA][Ala(pyrimidin-5-yl)])) | 5.37
CCCC[C@@H]1NC(=O)[C@H](Cc2cncnc2)NC(=O)[C@H](CCCn2ccnc2)N(C)C(=O)[C@H](Cc2ccccc2)OC(=O)C23CC(CNC(=O)[C@H](Cc4cccnc4)N(C)C(=O)[C@H](CCCC)NC(=O)[C@H](Cc4ccccc4F)OC1=O)(C2)C3 [compound 246, cyclo(FLac-NMeNvalmid-PyrimAla-Nle-F2FLac-Nle-NMe3Pal-amBCP)] (cyclo([NMe3Pal][X1][PhLac][NMeNva(5-imidazol-1-yl)][Ala(pyrimidin-5-yl)][Nle][X2][Nle])) | < 4.29
CCCCC[C@@H]1NC(=O)[C@H](Cc2ccc(OC)cc2)NC(=O)[C@H](CC2CCC2)NC(=O)[C@H](Cc2ccc(NC(=N)N)cc2)NC(=O)CN(CCCS(C)(=O)=O)C(=O)[C@H](Cc2ccccc2)NC(=O)CSC[C@@](C)(C(N)=O)NC(=O)[C@H](Cc2ccccc2)N(C)C1=O [compound 389, cyclo(F-Mspg-Phe4Gn-cBuA-TyrOMe-Ahp-NMeF-aMeCl-ClAc)] ({CH2CO}-F[X32][Phe(4-guanidino)][Cba]Y(Me)[Ahp(2)][NMeF][αMeC]-NH2; thioether N-8) | < 4.29
CCCC[C@@H]1NC(=O)[C@H](Cc2cncnc2)NC(=O)[C@H](CCCn2ccnc2)N(C)C(=O)[C@H](Cc2ccccc2)OC(=O)C23CC(CNC(=O)[C@H](Cc4ccccc4)N(C)C(=O)[C@H](CCCC)NC(=O)[C@H](Cc4ccccc4F)NC1=O)(C2)C3 (single isomer, unassigned) [compound 222, cyclo(FLac-NMeNvalmid-PyrimAla-Nle-Phe2F-Nle-NMeF-amBCP)] | < 4.29
CCCC[C@@H]1NC(=O)[C@H](Cc2ccccc2F)NC(=O)C(CC2CC(F)(F)C2)NC(=O)[C@H](Cc2cncnc2)NC(=O)[C@H](C)N(C)C(=O)[C@H](Cc2ccccc2)OC(=O)C23CC(CNC(=O)[C@H](Cc4cccnc4)N(C)C1=O)(C2)C3 (single isomer, unassigned) [compound 123, cyclo(FLac-NMeA-PyrimAla-rF2Cba-Phe2F-Nle-NMe3Pal-amBCP)] | < 4.29
CCCC[C@@H]1NC(=O)[C@H](Cc2cccnc2)NC(=O)[C@H](CCCNC(=N)N)N(C)C(=O)[C@H](Cc2ccccc2)NC(=O)[C@@H]2C[C@H]2CNC(=O)[C@H](Cc2ccccc2)N(C)C(=O)[C@H](CCCCN=[N+]=[N-])NC(=O)[C@H](Cc2ccc(OC)cc2)NC1=O [compound 94, cyclo(F-NMeR-3Pal-Nle-TyrOMe-LysN3-NMeF-tamcPr)] (cyclo(F[NMeR][3Pal][Nle]Y(Me)[Lys(N3)][NMeF][X21])) | < 4.29
CC(C)CC[C@@H]1NC(=O)[C@H](Cc2ccccc2F)NC(=O)[C@H](CC2CCC2)NC(=O)[C@H](Cc2cncnc2)NC(=O)[C@H](C)N(C)C(=O)[C@H](Cc2ccccc2)OC(=O)C23CC(CNC(=O)[C@H](Cc4ccccc4)N(C)C1=O)(C2)C3 [compound 134, cyclo(FLac-NMeA-PyrimAla-cBuA-Phe2F-hL-NMeF-amBCP)] (cyclo([Cba][Phe(2-F)][hLeu][NMeF][X1][PhLac][NMeA][Ala(pyrimidin-5-yl)])) | 6.48
CC(C)CC[C@@H]1NC(=O)[C@H](Cc2ccccc2F)NC(=O)[C@H](CC2CCCC2)NC(=O)[C@H](Cc2cncnc2)NC(=O)[C@H](C)N(C)C(=O)[C@H](Cc2ccccc2)OC(=O)C23CC(CNC(=O)[C@H](Cc4ccccc4)N(C)C1=O)(C2)C3 [compound 135, cyclo(FLac-NMcA-PyrimAla-cPeA-Phe2F-hL-NMeF-amBCP)] (cyclo([Ala(cPent)][Phe(2-F)][hLeu][NMeF][X1][PhLac][NMeA][Ala(pyrimidin-5-yl)])) | 6.55
CCCCC[C@@H]1NC(=O)[C@H](CC(=O)N2CCCC2)NC(=O)[C@H](CC2CCC2)NC(=O)[C@H](Cc2cccnc2)NC(=O)[C@H](CCCNC(=N)N)NC(=O)[C@H](Cc2ccccc2)NC(=O)CSC[C@@](C)(C(N)=O)NC(=O)[C@H](Cc2ccccc2)N(C)C1=O [compound 373, cyclo(F-R~3Pal-cBuA-PyD-Ahp-NMeF-aMeCl-ClAc)] ({CH2CO}-FR[3Pal][Cba]D(Pyrrolidide)[Ahp(2)][NMeF][αMeC]-NH2; thioether N-8) | < 4.29
CCCC[C@@H]1NC(=O)[C@H](C(C)C)NC(=O)[C@H](CC2CCC2)NC(=O)[C@H](Cc2cccnc2)NC(=O)[C@H](CCN=[N+]=[N-])NC(=O)[C@H](Cc2ccccc2)NC(=O)C23CC(CNC(=O)[C@H](Cc4cccnc4)N(C)C1=O)(C2)C3 [compound 113, cyclo(F-DabN3~3Pal-cBuA-V-Nle-NMe3Pal-amBCP)] (cyclo(F[Aha][3Pal][Cba]V[Nle][NMe3Pal][X1])) | < 4.29
CC(C)CC[C@@H]1NC(=O)[C@H](Cc2ccccc2F)NC(=O)[C@H](CC2CC2)NC(=O)[C@H](Cc2cncnc2)NC(=O)[C@H](CCC(F)F)N(C)C(=O)[C@H](Cc2ccccc2)OC(=O)C23CC(CNC(=O)[C@H](Cc4ccccc4)N(C)C1=O)(C2)C3 [compound 217, cyclo(FLac-NMeNvaF2-PyrimAla-cPrA-Phe2F-hL-NMeF-amBCP)] (cyclo([Ala(cPr)][Phe(2-F)][hLeu][NMeF][X1][PhLac][NMeNva(5,5-F2)][Ala(pyrimidin-5-yl)])) | 5.75
